The structures appear in SMILES notation.

The target of the assay is T1, Human VPS34 (Homo sapiens, UniProt Q8NEB9).
T1 construct: GST (N); host or cells: SF9 insect cells (baculovirus)
The assay is described as follows: Human VPS34 Enzyme Assay (Adapta TR-FRET). It counts as biochemical. The note with it: compound at 1.111 μM; read-out: Average VPS34 % INH @ 1.111 μM. On the procedure:
VPS34 (accession number GB:BC033004) was cloned into pDEST20-Thombin as N-terminal GST tagged fusion proteins using the Gateway system (Invitrogen, catalog#11804-013). The sequences were verified before recombinant protein expression using the Baculovirus Expression System with Gateway® Technology.
For expression VPS34 was infected at 1MOI in SF9 cells and harvested 72 hours post infection.
For purification, VPS34 is purified by Glutathione Sepharose 4 Fast Flow (GE Healthcare #17-5132-03) followed by HiTrap Q (GE Healthcare #17-1153-01).
Human VPS34 Enzyme Assay Method
100 nL compounds in DMSO are added to wells of a 384 well microtitre plate (Greiner 780076). At room temperature: 5 ul VPS34 reaction buffer (Invitrogen Assay Buffer Q (diluted 1 in 5 with nanopure water) plus 2 mM DTT and 2 mM MnCl2) containing ATP (20 uM, Promega) and 200 uM PI-PS substrate (Invitrogen PV5122) is added followed immediately by 5 ul VPS34 reaction buffer (as above) containing VPS34 (5 nM, Millennium Protein Sciences Group) and the mixture is incubated with shaking at room temperature for 1 hour. Then 5 ul VPS34 stop-detect mix (as per Invitrogen Adapta Assay kit (PV5009) instructions (contains kinase quench buffer, TR-FRET buffer, Adapta Eu anti-ADP antibody and Alexa Fluor 647 ADP tracer)) is added to quench the reaction. The plates are then incubated for 30 minutes at room temperature with shaking and then read on a BMG PheraStar Plus reader.
3) VPS34 is assayed using Adapta™ Universal Kinase Assay Kit (Invitrogen).
(In TR-FRET formats the signal depends on donor and acceptor labels being close together.)

T1 sequence (Q8NEB9 whole entry): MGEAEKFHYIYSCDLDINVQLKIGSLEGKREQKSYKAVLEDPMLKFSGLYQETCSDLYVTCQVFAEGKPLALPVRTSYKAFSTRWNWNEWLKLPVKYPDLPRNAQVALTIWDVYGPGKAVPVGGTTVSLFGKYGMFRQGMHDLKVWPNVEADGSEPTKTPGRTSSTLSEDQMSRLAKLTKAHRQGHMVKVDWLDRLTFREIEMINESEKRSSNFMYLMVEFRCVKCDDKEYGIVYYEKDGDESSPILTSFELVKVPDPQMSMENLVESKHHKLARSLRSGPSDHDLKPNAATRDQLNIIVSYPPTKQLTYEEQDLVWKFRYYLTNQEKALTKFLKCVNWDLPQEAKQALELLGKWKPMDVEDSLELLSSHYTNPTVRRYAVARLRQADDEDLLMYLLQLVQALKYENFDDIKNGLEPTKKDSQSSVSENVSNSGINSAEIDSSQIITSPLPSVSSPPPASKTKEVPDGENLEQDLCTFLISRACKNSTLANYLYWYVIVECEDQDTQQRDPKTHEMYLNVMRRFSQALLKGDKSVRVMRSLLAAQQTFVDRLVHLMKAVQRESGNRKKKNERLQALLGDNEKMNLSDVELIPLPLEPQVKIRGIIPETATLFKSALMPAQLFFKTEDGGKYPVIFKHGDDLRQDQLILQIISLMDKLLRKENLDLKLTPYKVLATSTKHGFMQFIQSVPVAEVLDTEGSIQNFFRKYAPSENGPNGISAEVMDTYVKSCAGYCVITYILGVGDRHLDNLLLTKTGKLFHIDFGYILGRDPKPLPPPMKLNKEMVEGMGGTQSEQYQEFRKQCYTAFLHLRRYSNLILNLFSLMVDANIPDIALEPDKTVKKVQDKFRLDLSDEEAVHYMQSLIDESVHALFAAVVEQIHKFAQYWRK

For `CC(=O)Nc1cc(-c2nc(-c3ccccc3Cl)c(-c3nnc[nH]3)o2)c(C)cn1` [Compound I-39, N-{4-[4-(2-chlorophenyl)-5-(4H-1,2,4-triazol-3-yl)-1,3-oxazol-2-yl]-5-methylpyridin-2-yl}acetamide], the inhibition at 1.111 µM was 125%.

`CC(=O)Nc1cc(-c2nc(C(=O)NCc3ccccc3)c(-c3ccccc3Cl)o2)c(C)cn1` [Compound I-55, 2-(2-acetamido-5-methylpyridin-4-yl)-N-benzyl-5-(2-chlorophenyl)-1,3-oxazole-4-carboxamide]: the inhibition at 1.111 µM was determined as 20%.

For the molecule `CC(=O)Nc1cc(-c2cc(C(=O)O)c(-c3ccccc3Cl)o2)ccn1` [Compound I-2, 5-[2-(acetylamino)pyridin-4-yl]-2-(2-chlorophenyl)-3-furoic acid], the inhibition at 1.111 µM turned out to be 124%.

Regarding `Clc1ccccc1-c1oc(-c2ccncc2)nc1-c1nnc[nH]1` [Compound I-49, 4-[5-(2-chlorophenyl)-4-(4H-1,2,4-triazol-3-yl)-1,3-oxazol-2-yl]pyridine], the inhibition at 1.111 µM turned out to be 19%.

Turning to `Cc1cnc(NC(=O)C2CC2)cc1-c1nc(C(N)=O)c(-c2ccccc2Cl)o1` [Compound I-86, 5-(2-chlorophenyl)-2-{2-[(cyclopropylcarbonyl)amino]-5-methylpyridin-4-yl}-1,3-oxazole-4-carboxamide], the inhibition at 1.111 µM was 117%.

For the molecule `O=C(Cn1cccn1)Nc1cc(-c2nc(-c3nnc[nH]3)c(-c3ccccc3Cl)o2)ccn1` [Compound I-37, N-{4-[5-(2-chlorophenyl)-4-(4H-1,2,4-triazol-3-yl)-1,3-oxazol-2-yl]pyridin-2-yl}-2-(1H-pyrazol-1-yl)acetamide], the inhibition at 1.111 µM came out at 117%.

Consider `CC(=O)Nc1cc(-c2nc(C(=O)NC[C@@H](C)O)c(-c3ccccc3Cl)o2)c(C)cn1` (stereo in doubt) [Compound I-62, 2-(2-acetamido-5-methylpyridin-4-yl)-5-(2-chlorophenyl)-N-(2-hydroxypropyl)-1,3-oxazole-4-carboxamide], for which the inhibition at 1.111 µM was 51%.

As to `CC(=O)Nc1cc(-c2cc(C(=O)NCc3ccccc3)c(-c3ccccc3Cl)o2)c(C)cn1` [Compound I-53, 5-(2-acetamido-5-methylpyridin-4-yl)-N-benzyl-2-(2-chlorophenyl)-3-furamide], the inhibition at 1.111 µM was 104%.

For the molecule `O=C(Cc1ccc(O)cc1)Nc1cc(-c2nc(-c3nnc[nH]3)c(-c3ccccc3Cl)o2)ccn1` [Compound I-58, N-{4-[5-(2-chlorophenyl)-4-(4H-1,2,4-triazol-3-yl)-1,3-oxazol-2-yl]pyridin-2-yl}-2-(4-hydroxyphenyl)acetamide], the inhibition at 1.111 µM was 94%.

Regarding `CC(=O)Nc1cc(-c2cc(C(N)=O)c(-c3ccccc3Cl)o2)c(C)cn1` [Compound I-83, 5-(2-acetamido-5-methylpyridin-4-yl)-2-(2-chlorophenyl)-3-furamide], the inhibition at 1.111 µM was 130%.

Turning to `CC(=O)Nc1cc(-c2nc(-c3cc(CN4CCCC4)ccc3Cl)c(-c3nnc[nH]3)o2)c(C)cn1` [Compound I-16, N-(4-{4-[2-chloro-5-(pyrrolidin-1-ylmethyl)phenyl]-5-(4H-1,2,4-triazol-3-yl)-1,3-oxazol-2-yl}-5-methylpyridin-2-yl)acetamide], the inhibition at 1.111 µM worked out at 131%.

For `CC(=O)Nc1cc(-c2cc(C(=O)NCc3cccs3)c(-c3ccccc3Cl)o2)c(C)cn1` [Compound I-42, 5-(2-acetamido-5-methylpyridin-4-yl)-2-(2-chlorophenyl)-N-(2-thienylmethyl)-3-furamide], the inhibition at 1.111 µM was 117%.

With `CC(=O)Nc1cc(-c2nc(-c3ccccc3Cl)c(-c3ncco3)o2)c(C)cn1` [Compound I-33, N-{4-[4′-(2-chlorophenyl)-2,5′-bi-1,3-oxazol-2′-yl]-5-methylpyridin-2-yl}acetamide], the inhibition at 1.111 µM stood at 102%.

On to `COCCNC(=O)c1nc(-c2cc(NC(C)=O)ncc2C)oc1-c1ccccc1Cl` [Compound I-64, 2-(2-acetamido-5-methylpyridin-4-yl)-5-(2-chlorophenyl)-N-(2-methoxyethyl)-1,3-oxazole-4-carboxamide], for which the inhibition at 1.111 µM is 64%.

The values above are taken from patent US8859768B2, “Heteroaryls and uses thereof” (Millennium Pharmaceuticals, Inc., priority 2010, dated 2014).
